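Where inhibition never reached the appropriate level, the endpoint shown equals the highest concentration tested. Otherwise, values were interpolated linearly from a five-concentration, 48-hour dose response in 96-well plates. GI50: concentration for 50% inhibition of growth.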 Calls of active or inactive are those of the source. Rule as the data show it: active = GI50 up to about 1.1 µM and inactive = higher.
Key:
Assay in all cases: NCI tumour cell line growth inhibition, 48 h
786-0 = test system: 786-0
A498 = test system: A498
A549 = test system: A549
ACHN = test system: ACHN
CAKI-1 = test system: CAKI-1
CCRF-CEM = test system: CCRF-CEM
COLO 205 = test system: COLO 205
DU-145 = test system: DU-145
EKVX = test system: EKVX
HCC 2998 = test system: HCC 2998
HCT-116 = test system: HCT-116
HCT-15 = test system: HCT-15
HL-60 = test system: HL-60
HOP-62 = test system: HOP-62
HOP-92 = test system: HOP-92
HT-29 = test system: HT-29
Hs-578T = test system: Hs-578T
IGROV-1 = test system: IGROV-1
K562 = test system: K562
KM12 = test system: KM12
LOX IMVI = test system: LOX IMVI
MCF7 = test system: MCF7
MDA-MB-231 = test system: MDA-MB-231
MDA-MB-435 = test system: MDA-MB-435
MDA-N = test system: MDA-N
MOLT-4 = test system: MOLT-4
Malme-3M = test system: Malme-3M
NCI-H226 = test system: NCI-H226
NCI-H23 = test system: NCI-H23
NCI-H460 = test system: NCI-H460
NCI-H522 = test system: NCI-H522
NCI/ADR-RES = test system: NCI/ADR-RES
OVCAR-3 = test system: OVCAR-3
OVCAR-4 = test system: OVCAR-4
OVCAR-5 = test system: OVCAR-5
OVCAR-8 = test system: OVCAR-8
PC-3 = test system: PC-3
RPMI-8226 = test system: RPMI-8226
RXF 393 = test system: RXF 393
SF-268 = test system: SF-268
SF-295 = test system: SF-295
SK-MEL-28 = test system: SK-MEL-28
SK-MEL-2 = test system: SK-MEL-2
SK-MEL-5 = test system: SK-MEL-5
SK-OV-3 = test system: SK-OV-3
SN12C = test system: SN12C
SNB-19 = test system: SNB-19
SNB-75 = test system: SNB-75
SR = test system: SR
SW-620 = test system: SW-620
T47D = test system: T47D
U-251 = test system: U-251
UACC-257 = test system: UACC-257
UACC-62 = test system: UACC-62
UO-31 = test system: UO-31
M14 = test system: M14
SF-539 = test system: SF-539
TK-10 = test system: TK-10

O=C(NCCCl)Nc1ccccc1
GI50 (786-0): > 100 µM (inactive)
GI50 (A498): > 100 µM (inactive)
GI50 (A549): > 100 µM (inactive)
GI50 (ACHN): > 100 µM (inactive)
GI50 (CAKI-1): > 100 µM (inactive)
GI50 (CCRF-CEM): > 100 µM (inactive)
GI50 (COLO 205): > 100 µM (inactive)
GI50 (DU-145): > 100 µM (inactive)
GI50 (EKVX): > 100 µM (inactive)
GI50 (HCC 2998): > 100 µM (inactive)
GI50 (HCT-116): > 100 µM (inactive)
GI50 (HCT-15): > 100 µM
GI50 (HL-60): > 100 µM (inactive)
GI50 (HOP-62): > 100 µM (inactive)
GI50 (HOP-92): > 100 µM (inactive)
GI50 (HT-29): > 100 µM (inactive)
GI50 (Hs-578T): > 100 µM (inactive)
GI50 (IGROV-1): > 100 µM (inactive)
GI50 (K562): > 100 µM (inactive)
GI50 (KM12): > 100 µM (inactive)
GI50 (LOX IMVI): > 100 µM (inactive)
GI50 (MCF7): > 100 µM (inactive)
GI50 (MDA-MB-231): > 100 µM (inactive)
GI50 (MDA-MB-435): > 100 µM (inactive)
GI50 (MDA-N): > 100 µM (inactive)
GI50 (MOLT-4): > 100 µM (inactive)
GI50 (Malme-3M): > 100 µM (inactive)
GI50 (NCI-H226): > 100 µM (inactive)
GI50 (NCI-H23): > 100 µM (inactive)
GI50 (NCI-H460): > 100 µM (inactive)
GI50 (NCI-H522): > 100 µM (inactive)
GI50 (NCI/ADR-RES): > 100 µM (inactive)
GI50 (OVCAR-3): > 100 µM (inactive)
GI50 (OVCAR-4): > 100 µM (inactive)
GI50 (OVCAR-5): > 100 µM (inactive)
GI50 (OVCAR-8): > 100 µM (inactive)
GI50 (PC-3): > 100 µM (inactive)
GI50 (RPMI-8226): > 100 µM (inactive)
GI50 (RXF 393): > 100 µM (inactive)
GI50 (SF-268): > 100 µM (inactive)
GI50 (SF-295): > 100 µM (inactive)
GI50 (SK-MEL-28): > 100 µM (inactive)
GI50 (SK-MEL-2): > 100 µM (inactive)
GI50 (SK-MEL-5): > 100 µM (inactive)
GI50 (SK-OV-3): > 100 µM (inactive)
GI50 (SN12C): > 100 µM (inactive)
GI50 (SNB-19): > 100 µM (inactive)
GI50 (SNB-75): > 100 µM (inactive)
GI50 (SR): > 100 µM (inactive)
GI50 (SW-620): > 100 µM (inactive)
GI50 (T47D): > 100 µM (inactive)
GI50 (U-251): > 100 µM (inactive)
GI50 (UACC-257): > 100 µM (inactive)
GI50 (UACC-62): > 100 µM (inactive)
GI50 (UO-31): > 100 µM (inactive)

O=C1c2cc3c(cc2CC12Cc1ccc4c(c1C2=O)CCCC4)CCCC3 (stereo unspecified)
GI50 (786-0): 20.1 µM (inactive)
GI50 (A498): 21.4 µM (inactive)
GI50 (A549): 82.6 µM (inactive)
GI50 (ACHN): 48.1 µM (inactive)
GI50 (CAKI-1): > 100 µM (inactive)
GI50 (CCRF-CEM): > 100 µM (inactive)
GI50 (DU-145): > 100 µM (inactive)
GI50 (EKVX): > 100 µM (inactive)
GI50 (HCC 2998): > 100 µM (inactive)
GI50 (HCT-116): 27.7 µM (inactive)
GI50 (HCT-15): > 100 µM
GI50 (HL-60): > 100 µM (inactive)
GI50 (HOP-62): 50.6 µM (inactive)
GI50 (HOP-92): 21.4 µM (inactive)
GI50 (HT-29): > 100 µM (inactive)
GI50 (Hs-578T): 61.7 µM (inactive)
GI50 (IGROV-1): 80.7 µM (inactive)
GI50 (K562): > 100 µM (inactive)
GI50 (LOX IMVI): > 100 µM (inactive)
GI50 (M14): > 100 µM (inactive)
GI50 (MCF7): > 100 µM (inactive)
GI50 (MDA-MB-231): 48.3 µM (inactive)
GI50 (MDA-MB-435): > 100 µM (inactive)
GI50 (MDA-N): > 100 µM (inactive)
GI50 (MOLT-4): > 100 µM (inactive)
GI50 (Malme-3M): 21.5 µM (inactive)
GI50 (NCI-H23): 79.1 µM (inactive)
GI50 (NCI-H460): 97.9 µM (inactive)
GI50 (NCI-H522): 85.7 µM (inactive)
GI50 (NCI/ADR-RES): 44.7 µM (inactive)
GI50 (OVCAR-3): 21.1 µM (inactive)
GI50 (OVCAR-4): 25.9 µM (inactive)
GI50 (OVCAR-5): > 100 µM (inactive)
GI50 (OVCAR-8): 67 µM (inactive)
GI50 (PC-3): > 100 µM (inactive)
GI50 (RPMI-8226): > 100 µM (inactive)
GI50 (RXF 393): 42 µM (inactive)
GI50 (SF-268): 50.2 µM (inactive)
GI50 (SF-295): 92.5 µM (inactive)
GI50 (SF-539): 36.1 µM (inactive)
GI50 (SK-MEL-28): > 100 µM (inactive)
GI50 (SK-MEL-2): 45.6 µM (inactive)
GI50 (SK-MEL-5): > 100 µM (inactive)
GI50 (SK-OV-3): 32.8 µM (inactive)
GI50 (SNB-19): 40.8 µM (inactive)
GI50 (SNB-75): 69.8 µM (inactive)
GI50 (SR): > 100 µM (inactive)
GI50 (SW-620): > 100 µM (inactive)
GI50 (T47D): > 100 µM (inactive)
GI50 (TK-10): > 100 µM (inactive)
GI50 (U-251): 24 µM (inactive)
GI50 (UACC-257): > 100 µM (inactive)
GI50 (UO-31): > 100 µM (inactive)

NC(=O)C(=CNC(=S)Nc1ccc(Cl)c(Cl)c1)C(N)=O
GI50 (786-0): > 71.1 µM (inactive)
GI50 (A498): > 61.4 µM (inactive)
GI50 (A549): > 100 µM (inactive)
GI50 (ACHN): > 94 µM (inactive)
GI50 (CAKI-1): 59.4 µM (inactive)
GI50 (CCRF-CEM): > 80.4 µM (inactive)
GI50 (COLO 205): 42.8 µM (inactive)
GI50 (DU-145): > 100 µM (inactive)
GI50 (EKVX): 65.9 µM (inactive)
GI50 (HCC 2998): 26.8 µM (inactive)
GI50 (HCT-116): > 78.2 µM (inactive)
GI50 (HCT-15): 45.1 µM
GI50 (HL-60): > 60.1 µM (inactive)
GI50 (HOP-62): > 100 µM (inactive)
GI50 (HOP-92): 33.1 µM (inactive)
GI50 (HT-29): 46.3 µM (inactive)
GI50 (Hs-578T): 30.3 µM (inactive)
GI50 (IGROV-1): 92.7 µM (inactive)
GI50 (K562): > 70 µM (inactive)
GI50 (KM12): 55.1 µM (inactive)
GI50 (LOX IMVI): > 92.3 µM (inactive)
GI50 (M14): > 100 µM (inactive)
GI50 (MCF7): > 52 µM (inactive)
GI50 (MDA-MB-231): > 100 µM (inactive)
GI50 (MDA-MB-435): 44.8 µM (inactive)
GI50 (MDA-N): 47.4 µM (inactive)
GI50 (MOLT-4): 48.3 µM (inactive)
GI50 (Malme-3M): > 100 µM (inactive)
GI50 (NCI-H226): 0.374 µM (active)
GI50 (NCI-H23): > 92.3 µM (inactive)
GI50 (NCI-H460): > 100 µM (inactive)
GI50 (NCI-H522): 17.5 µM (inactive)
GI50 (NCI/ADR-RES): 85.1 µM (inactive)
GI50 (OVCAR-3): > 100 µM (inactive)
GI50 (OVCAR-4): 46 µM (inactive)
GI50 (OVCAR-5): > 100 µM (inactive)
GI50 (OVCAR-8): > 88.3 µM (inactive)
GI50 (PC-3): > 66.4 µM (inactive)
GI50 (RPMI-8226): 36.1 µM (inactive)
GI50 (RXF 393): > 49.9 µM (inactive)
GI50 (SF-268): > 90.8 µM (inactive)
GI50 (SF-295): > 85.7 µM (inactive)
GI50 (SF-539): 26.7 µM (inactive)
GI50 (SK-MEL-28): > 100 µM (inactive)
GI50 (SK-MEL-2): > 81.3 µM (inactive)
GI50 (SK-MEL-5): 42.3 µM (inactive)
GI50 (SK-OV-3): > 78.7 µM (inactive)
GI50 (SN12C): > 100 µM (inactive)
GI50 (SNB-19): > 94.8 µM (inactive)
GI50 (SNB-75): > 59.6 µM (inactive)
GI50 (SR): > 71.3 µM (inactive)
GI50 (SW-620): > 100 µM (inactive)
GI50 (T47D): 12.2 µM (inactive)
GI50 (TK-10): > 77.8 µM (inactive)
GI50 (U-251): > 56 µM (inactive)
GI50 (UACC-257): > 100 µM (inactive)
GI50 (UACC-62): 49.8 µM (inactive)
GI50 (UO-31): 16.5 µM (inactive)
